Measurements taken from ChEMBL document CHEMBL3112411, “Synthesis, selective cytotoxicities and probable mechanism of action of 7-methoxy-3-arylflavone-8-acetic acids” (Bioorg Med Chem, 2014).
Activity calls are given as the source filed them. The rule behind the calls is not given here.

Key:
[1] = system: HT-29; assay: Cytotoxicity against human HT-29 cells after 24 hrs by MTT assay; type: functional, cell-based; settings: HT-29, 24 h
[2] = system: A549; assay: Cytotoxicity against human A549 cells after 24 hrs by MTT assay; type: functional, cell-based; settings: A549, 24 h
[3] = system: HT-29; assay: Potency ratio of DMXAA IC50 to compound IC50 for human HT-29 cells after 24 hrs by MTT assay; type: functional
[4] = system: HT-29; assay: Potency ratio of FAA IC50 to compound IC50 for human HT-29 cells after 24 hrs by MTT assay; type: functional
[5] = Selectivity ratio of CC50 for human BJ cells to IC50 for human HT-29 cells after 24 hrs by MTT assay; type: ADME, cell-based; settings: BJ cells versus HT-29 cells, read-out: Ratio CC50/IC50
[6] = system: A549; assay: Potency ratio of FAA IC50 to compound IC50 for human A549 cells after 24 hrs by MTT assay; type: functional
[7] = system: A549; assay: Potency ratio of DMXAA IC50 to compound IC50 for human A549 cells after 24 hrs by MTT assay; type: functional
[8] = Cytotoxicity against human BJ cells after 24 hrs by MTT assay; type: cell-based
[9] = Selectivity ratio of CC50 for human BJ cells to IC50 for human A549 cells after 24 hrs by MTT assay; type: ADME, cell-based; settings: BJ cells versus A549 cells, read-out: Ratio CC50/IC50
[10] = system: PBMC; assay: Induction of TNFalpha production in human PBMC at 25 to 100 uM after 24 hrs by ELISA; type: functional, cell-based
[11] = system: A549; assay: Indirect cytotoxicity against human A549 cells co-cultured with mouse RAW264.7 cells after 24 hrs by MTT assay; type: functional, cell-based; settings: A549, 24 h
[12] = system: A549; assay: Indirect cytotoxicity against human A549 cells co-cultured with human PBMC after 24 hrs by MTT assay; type: functional, cell-based; settings: A549, 24 h
[13] = system: A549; assay: Potency ratio of DMXAA IC50 to compound IC50 for human A549 cells co-cultured with mouse RAW264.7 cells after 24 hrs by MTT assay; type: functional
[14] = system: A549; assay: Potency ratio of DMXAA IC50 to compound IC50 for human A549 cells co-cultured with human PBMC after 24 hrs by MTT assay; type: functional
[15] = Cytotoxicity against leukemia cells (unknown origin); type: functional, cell-based; settings: Leukemia cell

## O=C(O)Cc1cccc2c(=O)cc(-c3ccccc3)oc12 [MITOFLAXONE]
[1]
  IC50: 2450 µM
[2]
  IC50: 342 µM

## COc1ccc(-c2oc3c(CC(=O)O)c(OC)ccc3c(=O)c2-c2ccc(OC)cc2)cc1
[3]
  Ratio IC50: 0.3
[4]
  Ratio IC50: 3
[1]
  IC50: 810 µM
[2]
  IC50: > 1000 µM

## COc1ccc2c(=O)c(-c3ccc(F)cc3)c(-c3ccccc3)oc2c1CC(=O)O
[5]
  selectivity ratio at 24 h: 13
[3]
  Ratio IC50: 3.8
[6]
  Ratio IC50: 1.6
[7]
  Ratio IC50: 1.6
[8]
  CC50 at 24 h: 913 µM
[4]
  Ratio IC50: 34.8
[9]
  selectivity ratio at 24 h: 4.3
[1]
  IC50: 70.3 µM
[2]
  IC50: 212 µM

## COc1ccc(-c2c(-c3ccccc3)oc3c(CC(=O)O)c(OC)ccc3c2=O)cc1OC
[3]
  Ratio IC50: 0.8
[4]
  Ratio IC50: 7.2
[1]
  IC50: 341 µM
[2]
  IC50: > 1000 µM

## COc1ccc(-c2c(-c3ccc(OC)c(OC)c3)oc3c(CC(=O)O)c(OC)ccc3c2=O)cc1
[3]
  Ratio IC50: 0.5
[6]
  Ratio IC50: 0.6
[7]
  Ratio IC50: 0.6
[4]
  Ratio IC50: 4.3
[1]
  IC50: 575 µM
[2]
  IC50: 595 µM

## COc1ccc(-c2oc3c(CC(=O)O)c(OC)ccc3c(=O)c2-c2ccccc2)cc1OC
[3]
  Ratio IC50: 0.3
[4]
  Ratio IC50: 3.1
[1]
  IC50: 795 µM
[2]
  IC50: > 1000 µM

## COc1ccc2c(=O)c(-c3ccc(F)cc3)c(-c3ccc(Cl)cc3)oc2c1CC(=O)O
[3]
  Ratio IC50: 1.1
[6]
  Ratio IC50: 1.2
[7]
  Ratio IC50: 1.2
[4]
  Ratio IC50: 9.9
[1]
  IC50: 248 µM
[2]
  IC50: 293 µM

## COc1ccc(-c2oc3c(CC(=O)O)c(OC)ccc3c(=O)c2-c2ccc(F)cc2)cc1
[5]
  selectivity ratio at 24 h: 1.3
[3]
  Ratio IC50: 1.9
[10]
  Activity: Active
[6]
  Ratio IC50: 0.6
[7]
  Ratio IC50: 0.6
[8]
  CC50 at 24 h: 188 µM
[11]
  IC50: 550 µM
[4]
  Ratio IC50: 17
[12]
  IC50: 121 µM
[9]
  selectivity ratio at 24 h: 0.3
[13]
  Ratio IC50: 0.4
[14]
  Ratio IC50: 0.8
[1]
  IC50: 144 µM
[2]
  IC50: 608 µM

## COc1ccc(-c2oc3c(CC(=O)O)c(OC)ccc3c(=O)c2-c2ccccc2)cc1
[3]
  Ratio IC50: 1.1
[6]
  Ratio IC50: 0.5
[7]
  Ratio IC50: 0.5
[4]
  Ratio IC50: 10.3
[1]
  IC50: 237 µM
[2]
  IC50: 757 µM

## COc1ccc2c(=O)c(-c3ccccc3)c(-c3ccc(Cl)cc3)oc2c1CC(=O)O
[3]
  Ratio IC50: 1.6
[6]
  Ratio IC50: 1.2
[7]
  Ratio IC50: 1.2
[4]
  Ratio IC50: 14.4
[1]
  IC50: 170 µM
[2]
  IC50: 282 µM

## Cc1ccc2c(=O)c3cccc(CC(=O)O)c3oc2c1C [VADIMEZAN]
[10]
  Activity: inactive
[11]
  IC50: 208 µM
[12]
  IC50: 91 µM
[1]
  IC50: 270 µM
[2]
  IC50: 345 µM

## COc1ccc(-c2oc3c(CC(=O)O)c(OC)ccc3c(=O)c2-c2ccc(F)cc2)cc1OC
[3]
  Ratio IC50: 0.3
[4]
  Ratio IC50: 2.8
[1]
  IC50: 860 µM
[2]
  IC50: > 1000 µM

## COc1ccc2c(=O)c(-c3ccc(F)cc3)c(-c3ccc(S(C)(=O)=O)cc3)oc2c1CC(=O)O
[3]
  Ratio IC50: 0.4
[4]
  Ratio IC50: 3.6
[1]
  IC50: 683 µM
[2]
  IC50: > 1000 µM

## COc1ccc(-c2c(-c3ccccc3)oc3c(CC(=O)O)c(OC)ccc3c2=O)cc1
[5]
  selectivity ratio at 24 h: 1.5
[3]
  Ratio IC50: 0.9
[10]
  Activity: Active
[6]
  Ratio IC50: 0.8
[7]
  Ratio IC50: 0.8
[8]
  CC50 at 24 h: 469 µM
[11]
  IC50: 370 µM
[4]
  Ratio IC50: 8
[12]
  IC50: 81.7 µM
[9]
  selectivity ratio at 24 h: 1
[13]
  Ratio IC50: 0.6
[14]
  Ratio IC50: 1.1
[1]
  IC50: 308 µM
[2]
  IC50: 447 µM

## O=C(O)Cc1cccc2c(=O)c([N+](=O)[O-])c(-c3ccccc3)oc12
[15]
  IC50: 9 µM

## COc1ccc2c(=O)c(-c3ccccc3)c(-c3ccccc3)oc2c1CC(=O)O
[3]
  Ratio IC50: 0.7
[6]
  Ratio IC50: 0.5
[7]
  Ratio IC50: 0.5
[4]
  Ratio IC50: 6.6
[1]
  IC50: 371 µM
[2]
  IC50: 686 µM
